In patent US20220241376A1, “METHOD FOR DECREASING ADVERSE-EFFECTS OF INTERFERON” (ENYO PHARMA, priority 2019, published 2022):

Tested on: patients chronically infected with HBV
Test: 4-week clinical treatment combining weekly sub-cutaneous pegylated IFNα2a (PEG-IFN) with daily oral EYP001a or placebo: treatment emergent adverse events
Conditions: compared with Placebo + IFN; significant differences (Table 2)

## O=C(O)c1cc2c(Cl)c(N3CCN(S(=O)(=O)c4c(Cl)cccc4Cl)CC3)ccc2o1 [EYP001a]
  frequency of flu-like AE when IFN treatment was combined with EYP001: lower up to three times less
